Measured values taken from publication PMC10028264, “Synergistic antifungal interaction of N-(butylcarbamothioyl) benzamide and amphotericin B against Cryptococcus neoformans” (Frontiers in Microbiology, 2023).
≈ marks a conversion by molar mass, not a printed value. Read-outs that look alike come from different tables or passages of the source.

Tests used:
Hemolysis assay = assay type: cell-based, human; conditions: human, human erythrocyte suspension (3%); range over tested concentrations; compound alone; 3 h at 37°C; read-out: percentage of hemolysis
Method: The cytotoxicity of BTU-01 (1.95–1000.0 μg/mL) alone and combined with AmB (0.015–16.0 μg/mL) was evaluated on human erythrocytes. Blood from a healthy donor was collected according to the Declaration of Helsinki principles, defibrinated and an erythrocytes suspension (3%) was prepared in 5% glycosylated saline. A total of 100 μL of the erythrocytes suspension was incubated for 3 h at 37°C in wells of U-bottom 96-well polystyrene plates containing different concentrations of the compounds. Wells without the compounds and with 1% Triton X-100 were used as negative and positive hemolysis controls, respectively. The OD of the supernatant was determined at 550 nm with a microtiter plate reader (Synergy HT, BioTek, USA). The percentage of hemolysis was calculated by comparison with the positive control ([Izumi et al., 2012]).
The concentration of BTU-01 capable of causing 90% of hemolysis/cytotoxicity was used to calculate the selectivity index (SI) using the following equation: SI = CC90/MIC.

Cryptococcus neoformans [1] = assay: Time-kill kinetics; assay type: cell-based; conditions: for difference in CFU counts compared to untreated control cells: BTU-01 MIC, 48 h
Method: For all assays, fungal cells were incubated in RPMI-MOPS (except when specified) supplemented with BTU-01 and AmB alone at MIC and MFC values or combined at the synergistic MIC values. Untreated fungal cells were considered as control. The time-kill assay ([CLSI, 1999]) was performed to analyze the rate of fungal killing in the presence of the compounds alone or combined. The fungal cells (1.0 × 10^3 CFU/mL) were added to the wells of U-bottom 96-wells microtiter plates containing RPMI-MOPS supplemented with BTU-01 and/or AmB and were incubated at 37°C. At determined time points (0, 24, and 48 h), 10 μL was removed from each well and 10-fold serial diluted in saline. A 10-μL aliquot of each dilution was inoculated onto SD agar and the CFU counts were carried out after incubation at 37°C for 48 h. Averaged data were plotted as log10 CFU/mL vs. time (h). The fungicidal effect of the compounds was defined as a 99.9% (3 log10) reduction in CFU/mL of the starting inoculum ([[…] et al., 1998]).

Cryptococcus neoformans [2] = assay: Broth microdilution MIC and MFC on planktonic cells; assay type: cell-based
Method: Cryptococcus neoformans ATCC 34872 (serotype A), C. neoformans ATCC 66031 (serotype D), and four C. neoformans human isolates (Table 1) belonging to the microbial collection of the Laboratório de Biologia Molecular de Microrganismos of Universidade Estadual de Londrina (UEL), Londrina, Paraná, Brazil, were included in the present study. Yeasts were cultivated in Sabouraud dextrose (SD) agar at 37°C for 48 h and stored at 4°C. For the experiments, five colonies were transferred to SD broth and incubated under the same conditions. Cells were then centrifuged (10,000 × g for 1 min) and resuspended in 0.85% NaCl solution (saline) to achieve turbidity equivalent to 0.5 McFarland standard using the DensiCHEK™ PLUS colorimeter (bioMérieux), which corresponds to approximately 1.0–2.0 × 10^6 colony forming units (CFUs)/mL (standard fungal suspension). The fungal suspension was diluted in a culture medium to achieve the inoculum used in each assay. The study protocol was in accordance with the ethics committee of the UEL. The patients signed a written informed consent form agreeing with this publication (CAAE number 57452322.2.0000.5231).
Minimal inhibitory concentrations (MIC) of BTU-01 and AmB were determined by the broth microdilution method ([CLSI, 2017]). An inoculum (100 μL) of yeast cells (0.5–2.5 × 10^3 CFU/mL) was added into the wells of a U-bottom 96-well microtiter plate (Techno Plastic Products, Switzerland) containing twofold serial dilutions of BTU-01 (1.95–1000.0 μg/mL) and AmB (0.031–16.0 μg/mL) in RPMI-MOPS. Wells containing medium or medium plus DMSO 1% with or without the fungal cells were used as growth and sterility controls, respectively. Candida parapsilosis ATCC 22019 was used as quality control. […] The results of AmB were interpreted using the epidemiological cut-off values proposed in [Espinel-Ingroff et al. (2012)]. To determine the minimal fungicidal concentration (MFC), 10 μL from the wells without visible growth was transferred onto SD agar ([Espinel-Ingroff et al., 2002]), and incubated at 37°C for 48 h. The MFC was determined as the lowest concentration capable of reducing the CFU counts to zero.

[3] = test system: Cryptococcus neoformans biofilm; assay: Checkerboard assay on 72-h biofilms; assay type: cell-based; conditions: 72-h biofilm
Method: The antifungal effect of BTU-01 combined with AmB was evaluated using the checkerboard broth microdilution assay, according to [Scott et al. (1995)]. […] The Fractional Inhibitory Concentration (FIC) of each compound was determined by the ratio of the MIC obtained when the compounds were tested in combination and the MIC of the compounds tested individually. […] Untreated and treated biofilms were incubated at 37°C for further 24 h, and then washed with saline. The biofilm viability was analyzed by the MTT reduction assay as described above. […] The checkerboard assays were performed to analyze the effect of the combination with BTU-01 and AmB on 72-h biofilms. The results of the combination were interpreted using the FICI as described previously.

[4] = Cryptococcus neoformans, 72 h, C. neoformans 1172; planktonic cells; 72 h; read-out: MIC
[5] = Cryptococcus neoformans, 72 h, C. neoformans 90889; planktonic cells; 72 h; read-out: MIC
[6] = Cryptococcus neoformans, 72 h, C. neoformans CN01; planktonic cells; 72 h; read-out: MIC
[7] = Cryptococcus neoformans, 72 h, C. neoformans CN12; planktonic cells; 72 h; read-out: MIC
[8] = Cryptococcus neoformans, ATCC34872, 72 h, C. neoformans ATCC 34872; planktonic cells; 72 h; read-out: MIC
[9] = Cryptococcus neoformans, ATCC66031, 72 h, C. neoformans ATCC 66031; planktonic cells; 72 h; read-out: MIC

In the case of `CCCCNC(=S)NC(=O)c1ccccc1` [BTU-01, N-(butylcarbamothioyl) benzamide], the hemolysis at 3 h (Hemolysis assay) is reported as 0 to 3.18%, the “difference in CFU counts compared to untreated control cells” value (Cryptococcus neoformans [1]; 1172) is reported as 3 log10 and the “difference in CFU counts compared to untreated control cells” value (Cryptococcus neoformans [1]; ATCC 34872) is reported as 2 log10. For the same compound, the “reduction of CFU compared to untreated control” value (Cryptococcus neoformans [1]; treatment with MFC, 1172 isolate) was 5 log CFU, the CFU counts (Cryptococcus neoformans [1]; treatment with MFC, ATCC 34872) was “zero CFU counts” and the MFC (Cryptococcus neoformans [2]; Cryptococcus neoformans, 72 h, C. neoformans 1172; planktonic cells; 72 h; read-out: MFC) was 125 µg/mL (≈ 529 µM). For the same compound, the MIC (Cryptococcus neoformans [2]; [4]) was 62.5 µg/mL (≈ 264 µM), the MFC (Cryptococcus neoformans [2]; Cryptococcus neoformans, 72 h, C. neoformans 90889; planktonic cells; 72 h; read-out: MFC) was 250 µg/mL (≈ 1060 µM) and the MIC (Cryptococcus neoformans [2]; [5]) was 62.5 µg/mL (≈ 264 µM). It also gave an MFC (Cryptococcus neoformans [2]; Cryptococcus neoformans, 72 h, C. neoformans CN01; planktonic cells; 72 h; read-out: MFC) of 500 µg/mL (≈ 2120 µM), an MIC (Cryptococcus neoformans [2]; [6]) of 62.5 µg/mL (≈ 264 µM) and an MFC (Cryptococcus neoformans [2]; Cryptococcus neoformans, 72 h, C. neoformans CN12; planktonic cells; 72 h; read-out: MFC) greater than 1000 µg/mL. It also gave an MIC (Cryptococcus neoformans [2]; [7]) of 31.2 µg/mL (≈ 132 µM), an MFC (Cryptococcus neoformans [2]; Cryptococcus neoformans, ATCC34872, 72 h, C. neoformans ATCC 34872; planktonic cells; 72 h; read-out: MFC) of 125 µg/mL (≈ 529 µM) and an MIC (Cryptococcus neoformans [2]; [8]) of 62.5 µg/mL (≈ 264 µM). The MFC (Cryptococcus neoformans [2]; Cryptococcus neoformans, ATCC66031, 72 h, C. neoformans ATCC 66031; planktonic cells; 72 h; read-out: MFC) was 125 µg/mL (≈ 529 µM), the MIC (Cryptococcus neoformans [2]; [9]) was 62.5 µg/mL (≈ 264 µM) and the “nature of the antifungal effect” value (Cryptococcus neoformans [2]; from MIC and MFC; all strains) was “fungistatic effect”. For the same compound, the “reduction in SMIC80 value in combination” value ([3]; 1172 strain) was 128 fold and the “reduction in SMIC80 value in combination” value ([3]; ATCC 34872) was 16 fold.

With `C[C@@H]1[C@H](O)[C@@H](C)/C=C/C=C/C=C/C=C/C=C/C=C/C=C/[C@H](O[C@@H]2O[C@H](C)[C@@H](O)[C@H](N)[C@@H]2O)C[C@@H]2O[C@](O)(C[C@@H](O)C[C@@H](O)[C@H](O)CC[C@@H](O)C[C@@H](O)CC(=O)O[C@H]1C)C[C@H](O)[C@H]2C(=O)O` [Amphotericin B, amphotericin B] the hemolysis at 3 h (Hemolysis assay) was 0.52 to 1.34%, the CFU counts (Cryptococcus neoformans [1]; AmB MFC, after 24 h-incubation) was “no CFU counts were detected” and the MIC (Cryptococcus neoformans [2]; C. neoformans 1172; planktonic cells; 72 h; listed as AmB) was 0.25 µg/mL (≈ 0.271 µM). It also gave an MFC (Cryptococcus neoformans [2]; C. neoformans 90889; planktonic cells; 72 h) of 0.5 µg/mL (≈ 0.541 µM), an MIC (Cryptococcus neoformans [2]; C. neoformans ATCC 34872; planktonic cells; 72 h; listed as AmB) of 0.25 µg/mL (≈ 0.271 µM) and an MFC (Cryptococcus neoformans [2]; C. neoformans CN01; planktonic cells; 72 h) of 0.5 µg/mL (≈ 0.541 µM). It also gave an MFC (Cryptococcus neoformans [2]; C. neoformans CN12; planktonic cells; 72 h) of 0.5 µg/mL (≈ 0.541 µM), an MIC (Cryptococcus neoformans [2]; [4]) of 0.25 µg/mL (≈ 0.271 µM) and an MIC (Cryptococcus neoformans [2]; [5]) of 0.25 µg/mL (≈ 0.271 µM). For the same compound, the MIC (Cryptococcus neoformans [2]; [6]) was 0.125 µg/mL (≈ 0.135 µM), the MIC (Cryptococcus neoformans [2]; [7]) was 0.125 µg/mL (≈ 0.135 µM) and the MIC (Cryptococcus neoformans [2]; [8]) was 0.25 µg/mL (≈ 0.271 µM). It also gave an MFC (Cryptococcus neoformans [2]; Cryptococcus neoformans, ATCC34872; C. neoformans ATCC 34872; planktonic cells; 72 h; read-out: MFC) of 0.5 µg/mL (≈ 0.541 µM), an MIC (Cryptococcus neoformans [2]; [9]) of 0.125 µg/mL (≈ 0.135 µM) and an MFC (Cryptococcus neoformans [2]; Cryptococcus neoformans, ATCC66031; C. neoformans ATCC 66031; planktonic cells; 72 h; read-out: MFC) of 0.5 µg/mL (≈ 0.541 µM). The MFC (Cryptococcus neoformans [2]; Cryptococcus neoformans; C. neoformans 1172; planktonic cells; 72 h; read-out: MFC) was 0.5 µg/mL (≈ 0.541 µM), the “susceptibility of the strains to the antifungal” value (Cryptococcus neoformans [2]; epidemiological cut-off values of Espinel-Ingroff et al., 2012; all strains) was “susceptible” and the “MFC, range over all C. neoformans strains” value (Cryptococcus neoformans [2]; planktonic cells; all six strains) was 0.5 µg/mL (≈ 0.541 µM). The “reduction in SMIC80 value in combination” value ([3]; 1172 strain) was 8 fold and the “reduction in SMIC80 value in combination” value ([3]; ATCC 34872) was 8 fold.
